Measurements published in publication PMC9694197, “Undescribed Metabolites from an Actinobacteria Acrocarpospora punica and Their Anti-Inflammatory Activity” (Molecules, 2022).
Entries after “also recorded” stand apart in the source; their conditions may differ. Where two headings read alike, the source gives them in different places.

How the values were obtained:
Type in all cases: cell-based, mouse
[1] = test system: LPS-induced NO production in RAW 264.7 murine macrophages; assay: LPS-induced iNOS-dependent NO production (nitrite, Griess reagent assay); conditions: for IC50: read-out: IC50, NO generation; for NO inhibitory activity compared to quercetin: ratio to the positive control quercetin, RAW 264.7, LPS; for NO inhibitory activity (in words): RAW 264.7, LPS-stimulated
Method: (§1) The six isolates, in sufficient amounts, were evaluated by examining their inhibitory effects on LPS-induced inducible nitric oxide synthase (iNOS)-dependent NO production in the murine macrophage cell line RAW 264.7 (Table 5). […] (e) Compounds 3 and 6 belong to liner azaphilone skeleton and naphthenic derivatives, respectively; compound 3 has better anti-inflammatory activity than 6. […] (g) The cytotoxic effects were measured using an MTT assay.
(§2) Mouse macrophage cell line (RAW 264.7) was obtained from the Bioresource Collection and Research Center (BCRC 60001) and cultured at 37 °C in Dulbecco’s Modified Eagle’s Medium (DMEM) supplemented with 10% fetal bovine serum (Gibco), 4.5 g/L glucose, 4 mM glutamine, penicillin (100 units/mL), and streptomycin (100 μg/mL) in a humidified atmosphere in a 5% CO2 incubator. The cells were treated with 10, 25, 50 μM natural products in the presence of 1 μg/mL LPS (lipopolysaccharide, Sigma-Aldrich) for 20 h. The concentration of NO in culture supernatants was determined as nitrite, a major stable product of NO, by a Griess reagent assay, and the cell viabilities were determined using the MTT assay as described previously.

[2] = Cell viability, MTT assay; conditions: mouse, RAW 264.7 macrophage cells; RAW 264.7, MTT assay
Method: as §1, §2

[3] = test system: RAW 264.7 cells; assay: Cell viability, MTT assay; conditions: RAW 264.7, MTT assay, with 1 μg/mL LPS, 20 h; mean ± S.E.M.
Method: as §1, §2

[4] = test system: iNOS gene (mRNA expression); assay: RT-PCR of iNOS mRNA expression after LPS treatment
Method: as §1
The ImProm-II Reverse Transcription System (Promega) was used to take 1 μg of the extracted total RNA, to which was added 1 μL of Oligo(dT)15 Primer, and other supplements with DEPS water. At this time, the total volume was 5 μL. The reaction was immediately placed on ice for at least 5 min, and then 5 × buffer 4 μL, MgCl2 (25 mM) 1.2 μL, dNTP Mix (10 mM) 1 μL, RNasin Ribonuclease Inhibitor 0.5 μL, ImProm-II reverse transcriptase 1 μL and DEPC H2O 6.8 μL was added; the cDNA product was obtained after the reactions of 25 °C, 5 min; 42 °C, 1 h; and 70 °C, 15 min. At the same time, a negative control group was made without reverse transcriptase to confirm whether there was DNA contamination. The obtained cDNA product was then amplified by a PCR reaction to amplify the predicted fragment.
Using the ABI PRISM 7700 Sequence Detection System, the cDNA product was assayed for iNOS, TNF-α, IL-6 and β-actin (internal standard) in a total reaction volume of 20 μL, including 2 × IQ2 SYBR Green Fast qPCR Master Mix (2X) 10 μL, 10 μM of 5′ and 3′ primers 1 μL each. The cDNA template 1 μL reaction conditions were 95 °C, 2 min, 1 cycle; 95 °C, 5 s; and 60 °C, 30 s, 40 cycles. The primers of the PCR reaction were: sense strand iNOS, 5′-GGAGTGACGGCAAACATGACT-3′; anti-sense strand iNOS, 5′-TCGATGCACAACTGGGTGAAC-3′; sense strand IL-6, 5′-CAGAGTCCTTCAGAGAGATACAG-3′; anti-sense strand IL-6, 5′-GATGAATTGGATGGTCTTGGTCC-3′; sense strand TNF-α, 5′-CAGACCCTCACACTCAGATC-3′; anti-sense strand TNF-α, 5′-CTTTGAGATCCATGCCGTTG-3′; sense strand β-actin, 5′-GGCTGTATTCCCCTCCATCG-3′; and anti-sense strand β-actin, 5′-CCAGTTGGTAACAATGCCATGT-3′.

[5] = Mus musculus, RAW264.7, 20 h, RAW 264.7 murine macrophages, 1 μg/mL LPS, 20 h, mean ± S.E.M. of three independent experiments
[6] = RAW 264.7 murine macrophages, 1 μg/mL LPS, 20 h, mean ± S.E.M. of three independent experiments

IC50 [1, 5] [µM]	IC50 [1, 6] [µM]	IC50 ([1]; RAW 264.7 murine macrophages, 1 μg/mL LPS, 20 h, mean ± S.E.M. of three independent experiments, listed as 2) [µM]	IC50 ([1]; RAW 264.7 murine macrophages, 1 μg/mL LPS, 20 h, mean ± S.E.M. of three independent experiments, listed as 3) [µM]	Compound	NO inhibitory activity compared to quercetin [1]	viability at 20 h [2] [%]	Cell Viability (% Control) [3] [% Control]	Effect on LPS-increased iNOS mRNA expression [4]	NO inhibitory activity (in words) [1]	IC50 ([1]; Mus musculus, RAW264.7, 20 h) [µM]
≤ 27.2	27.2 ± 1.87			COc1cc2ccc3c(c2cc1C(C)C)CCCC3(C)C [Acrocarpunicain F (6), 6-isopropyl-7-methoxy-1,1-dimethyl-1,2,3,4-tetrahydrophenanthrene]	~1.2 fold	> 90	91.3 ± 7.1	inhibited this increase in a concentration-dependent manner; also recorded: significantly inhibited		
41.7 ± 3.02				CC=CC1=C(C)C(=O)C2(C)OC(=O)C(C(=O)CCCCC)C2C1 (centres unmarked) [Acrocarpunicain D (4), acrocarpunicain D]			62.2 ± 3.2		weak NO inhibitory activity	
	10.1 ± 0.47	≤ 27.2		CC=CC1=CC2=CC3=C(C(=O)CCCCCCC)C(=O)OC3(C)C(=O)C2=CN1CC (centres unmarked) [Acrocarpunicain B (2), acrocarpunicain B]	~3 fold	> 90	95.5 ± 4.2	inhibited this increase in a concentration-dependent manner; also recorded: significantly inhibited		
	5.15 ± 0.18		≤ 27.2	C/C=C/c1cc2cc3c(c(=O)c-2co1)C(=O)OC3C (centres unmarked) [Acrocarpunicain C (3), (E)-1-methyl-7-(prop-1-en-1-yl)-3H-furo [3,4-g]isochromene-3,4(1H)-dione]	~7 fold	> 90	92.7 ± 4.1	inhibited this increase in a concentration-dependent manner; also recorded: significantly inhibited		

Continued, compound first:

Compound	IC50 [1, 5] [µM]	IC50 [1, 6] [µM]	IC50 ([1]; RAW 264.7 murine macrophages, 1 μg/mL LPS, 20 h, mean ± S.E.M. of three independent experiments, listed as 2) [µM]	IC50 ([1]; RAW 264.7 murine macrophages, 1 μg/mL LPS, 20 h, mean ± S.E.M. of three independent experiments, listed as 3) [µM]	NO inhibitory activity compared to quercetin [1]	viability at 20 h [2] [%]	Cell Viability (% Control) [3] [% Control]	Effect on LPS-increased iNOS mRNA expression [4]	NO inhibitory activity (in words) [1]	IC50 ([1]; Mus musculus, RAW264.7, 20 h) [µM]
CC=CC1=CC2=CC3=C(C(=O)CCCCC)C(=O)OC3(C)C(=O)C2=CN1CC (centres unmarked) [Acrocarpunicain A (1), acrocarpunicain A]					about 4 fold	> 90	100 ± 15.5	inhibited this increase in a concentration-dependent manner; also recorded: significantly inhibited		
CCC(CCC(C)C1CCC2C3CC=C4CC(OC(=O)C=Cc5cc(O)c(OC)c(O)c5)CCC4(C)C3CCC12C)C(C)C (stereo not drawn) [Acrocarpunicain E (5), β-sitosteryl trans-3-hydroxyisoferulate]									no NO inhibitory activity	67.4 ± 4.09
O=c1c(O)c(-c2ccc(O)c(O)c2)oc2cc(O)cc(O)c12 [Quercetin, reference compound]	36 ± 2.34						95.9 ± 1.3			
